US20220008452A1, “COMPOSITIONS AND METHODS FOR TREATING OR PREVENTING NASH, NAFLD, DIABETES, ATHEROSCLEROSIS, AND/OR OBESITY” (YALE UNIVERSITY, priority 2018, published 2022)

Legend:
[1] = test system: CHFR; experiment: Relative mRNA and protein expression of CHFR (quantitative PCR, western blot)
[2] = test system: miR-335-5p; experiment: Relative expression of miR-335-5p by RT-PCR in endothelial cells; type: cell-based, human
Experimental: (§1) Human umbilical vein endothelial cells (HUVECs) were cultured in EBM-2 (Lonza) and THP-1 monocytes (ATCC) were grown in RPM. Human coronary microvascular endothelial cells (HCMECs) (Lonza) were cultured in EBM (Lonza). For experimental treatments, HUVECs and HMVECs (passages 3 to 8) were grown to 70-90% confluence. Simvastatin (Sigma) was activated to its active form as previously described. Atorvastatin (Sigma) was solubilized in DMSO and used at 10 μM concentration. Transient transfection of plasmids was performed with Fugene HD (Promega) according to the manufacturer's instructions. For small interfering RNA (Invitrogen) and miR-335-5p mimic (Dharmacon) transfections, each oligonucleotide formulation and respective controls (control siRNA: 12935112 (Invitrogen), miRNA mimic control: 0010000105 (Dharmacon), 50 nM) were complexed with Lipofectamine RNAiMAX (Invitrogen) according to the manufacturer's instructions.
(§2) Total RNA was extracted with the miRNeasy Mini kit (Qiagen). […] RT-PCR was performed with TaqMan probes for genes and miRNAs (ThermoFisher), or SYBR green assays for genes (Bio-Rad). All miRNA data were normalized to the internal control small RNAs U6 for human samples. For the mRNA samples, ribosomal 18S was used as an internal control. Individual RT-PCRs were performed on a […] (Bio-Rad) according to the manufacturer's instructions.

[3] = test system: MEST; experiment: Relative mRNA expression of MEST by RT-PCR in endothelial cells; type: cell-based, human
Experimental: as §1, §2

[4] = test system: miR335; experiment: miR335 inhibitor given to mice on 60% high fat diet; type: in vivo; details: 60% HFD, 5 mg/kg IP, vs control inhibitor
Experimental: FIG. 14 is a schematic outlining time course of an experiment comparing animals administered miR335 inhibitors to control, on a high fat diet. The mice were injected 5 mg/kg of miR335 inhibitor or its control twice a week for 4 weeks. Nonproprietary in vivo grade miRNA inhibitor purchased from Qiagen/Exiqon. Sequence: […] (SEQ ID NO:3; 100% complementary to […]).
The mice are subject to 6 weeks of 60% HFD. 5 mg/kg of miR335 inhibitor and its control was given to mice by IP injection. 2 weeks after, HFD was started.
The mir335−/− mice and Apoe−/− mice have been previously described. All animals were maintained on a C57BL/6 background. For mice fed a high-fat diet, mice were administered a 60% fat diet (TD-06414, Envigo) or 40% fat diet with 1.25% added cholesterol (DI2108C, Research Diet) for designated times before tissue and serum were collected.
Frozen 10-μm cryosections from the liver were washed with distilled water for 10 min. After the washing, sections were put into Eosin solution for 2 min. After rinsing with distilled water, sections were put into Hematoxylin solution for 5 min. After washing with distilled water for 15 min, the slides were mounted with DPX mountant (Sigma). Sections were imaged using bright-field microscopy.
Plasma was assessed for alanine aminotransferase (ALT) (Pointe Scientific) following the manufacturer's instructions. Briefly, 20 μl of each plasma sample was added in the 200 μl of the reagent and incubated at 37° C. After 1 min incubation, samples were put on the plate and the plate was read at 340 nm with a microplate reader (BioTek Synergy 2). The ALT values were calculated according to the manufacturer's instructions.

| Molecule | CHFR mRNA and protein expression ([1]; HCMECs) | CHFR mRNA and protein expression ([1]; HUVECs) | miR-335 expression ([2]; HCMECs) | miR-335 expression ([2]; HUVECs) | MEST expression ([3]; HCMECs) | MEST expression ([3]; HUVECs) | elevation in serum ALT associated with high fat diet [4] | fat accumulation in the liver [4] | liver histology [4] | liver weight [4] | weight gain associated with a high fat diet [4] |
| --- | --- | --- | --- | --- | --- | --- | --- | --- | --- | --- | --- |
| CC(C)c1c(C(=O)Nc2ccccc2)c(-c2ccccc2)c(-c2ccc(F)cc2)n1CC[C@@H](O)C[C@@H](O)CC(=O)O [atorvastatin] | significantly upregulated | significantly upregulated | significant decrease | significant decrease | significantly downregulated | significantly downregulated | – | – | – | – | – |
| miR335 inhibitor: Nonproprietary in vivo grade miRNA inhibitor purchased from Qiagen/Exiqon; sequence ACATTTTTCGTTATTGCTCTTGA (SEQ ID NO:3), complementary to miR-335-5p (in vivo grade miRNA inhibitor from Exiqon, chemistry not given here, further chemistry not given here) | – | – | – | – | – | – | attenuated | attenuated | preserved | decreased | suppressed |
